From patent US20260184726A1, “HETEROCYCLIC COMPOUNDS AS KINASE INHIBITORS, COMPOSITIONS, AND METHODS OF USE THEREOF” (JS INNOMED HOLDINGS LTD., priority 2022, published 2026)

What was measured:
BAF3 cells = assay: BAF3 Cell Proliferation Assay (CellTiter-Glo, without RET driven, IL-3); type: cell-based; details: Mus musculus; growth inhibition in BAF3 cells, 72 hours, with IL-3; read-out: BAF3 Cellular Activity
Protocol: Compounds disclosed herein were tested for the inhibition BAF3 cells proliferation without RET driven by CellTiter-Glo assay. In this assay, a complete media was prepared by adding 10% fetal bovine serum and 1 ng/ml IL-3 to RPMI-1640 medium (Life technology) for BAF3 cells. BAF3 cells were added to each of 88 wells of a 96 well plate at a seeding density of 2,000 cells/well/95 μL. The cells were allowed to attach to the plate by incubating at 37° C. for 24 hours. The compound was dissolved in DMSO (SIGMA). A solution of test compound was prepared in complete media by serial dilution to obtain the following concentrations: 200 μM, 66.7 μM, 22.2 μM, 7.4 μM, 2.5 μM, 0.82 μM, 0.27 μM, 0.091 μM and […]. The test compound solution (5 μL) was added to each of 80 cell-containing wells. The final concentrations of the compound were following: 10 μM, 3.33 μM, 1.11 μM, 0.37 μM, 0.12 μM, 0.041 μM, 0.014 μM, 0.0046 μM and 0.0015 μM. The final concentration of DMSO is 0.1%. To the 8 remaining cell-containing wells, only complete media (containing 0.1% DMSO) was added to form a control group in order to measure maximal proliferation. To the remaining 8 empty wells, complete media was added to for a vehicle control group in order to measure background. The plates were incubated at 37° C. for 72 hours. 50 μl of CellTiter-Glo® Reagent was added to each well. The contents were mixed for 2 minutes on an orbital shaker to induce cell lysis, and then were incubated at room temperature for 10 minutes to stabilize luminescent signal. Luminescence was recorded on Paradigm. Cell viability (CV %) was calculated relative to vehicle (DMSO) treated control wells. The IC50 was calculated using GraphPad Prism.

BAF3-KIF5B-RET cells = biological target: T1, BAF3-KIF5B-RET cells (Homo sapiens, UniProt P07949); assay: BAF3-KIF5B-RET Cell Proliferation Assay (CellTiter-Glo); type: cell-based; details: growth inhibition, 72 hours; Table 2; read-out: BA/F3-KIF5B-RET Cellular activity
T1 construct: fused on or other part: P33176 (Kinesin-1 heavy chain)
Protocol: Compounds disclosed herein were tested for the inhibition of RET by a cancer cell proliferation assay commonly known as CellTiter-Glo assay. In this assay, a complete media was prepared by adding 10% fetal bovine serum to RPMI-1640 medium (Life technology) for RET-driven cancer cells (BAF3-FIF5B-RET, Ba/F3-KIF5B-RET-G810R, Ba/F3-TEL-RET-M918T or Ba/F3-KIF5B-RET-V804M). Individual RET-driven type of cells were added to each of 88 wells of a 96 well plate at a seeding density of 2,000 cells/well/95 μL. The cells were allowed to attach to the plate by incubating at 37° C. for 24 hours. The compound was dissolved in DMSO (SIGMA). A solution of test compound was prepared in complete media by serial dilution to obtain the following concentrations: 20 μM, 6.67 μM, 2.22 μM, 0.74 μM, 0.25 μM, 0.082 μM, 0.027 μM, 0.0091 μM and 0.0030 μM. The test compound solution (5 μL) was added to each of 80 cell-containing wells. The final concentrations of the compound were following: 1 μM, 0.33 μM, 0.11 μM, 0.037 μM, 0.012 μM, 0.0041 μM, 0.0014 μM, 0.00046 μM and 0.00015 μM. The final concentration of DMSO is 0.1%. To the 8 remaining cell-containing wells, only complete media (containing 0.1% DMSO) was added to form a control group in order to measure maximal proliferation. To the remaining 8 empty wells, complete media was added to for a vehicle control group in order to measure background. The plates were incubated at 37° C. for 72 hours. 50 μl of CellTiter-Glo® Reagent was added to each well. Mix contents for 2 minutes on an orbital shaker to induce cell lysis. Incubate at room temperature for 10 minutes to stabilize luminescent signal. Record luminescence on Paradigm. Cell viability (CV %) was calculated relative to vehicle (DMSO) treated control wells. The IC50 was calculated using GraphPad Prism.

human Aurora B kinase = biological target: T2, human Aurora B kinase (Homo sapiens, UniProt Q96GD4); assay: Aurora B Kinase Assay (mobility shift assay, ATP at Km); type: biochemical; details: 15 μM ATP (Km), read-out: AurB Enzymatic Activity
T2 construct: purchased Carna 05-102
Protocol: Compounds were tested by Mobility shift assay with ATP concentration at Km. The assay used human Aurora B kinase (Carna 05-102). Test compounds were prepared and diluted in DMSO in 3-fold serial dilutions to 50× of the final testing concentrations. The compounds were then further diluted to 5× by the kinase reaction buffer (50 mM HEPES pH 7.5, 0.0015% Brij-35). The enzymatic reaction for compound testing was performed in a white 384-well polypropylene plate (Corning 3573) with a total reaction volume of 25 μl containing 9 nM Aurora B, 3 μM peptide substrate FAM-P21 (GL Biochem 116370), and 15 μM ATP (Sigma A7699-1G). The assay started with loading Aurora B diluted in kinase reaction buffer to wells, followed by addition of equal volume of 5× compounds for 15-min incubation at the room temperature for pre-treatment. The enzymatic reaction was initiated by addition of mixture of the substrate and ATP prepared in kinase reaction buffer. After incubation at 28° C. for one hour, 25 μl of stopper buffer (a mixture of 100 mM HEPES pH 7.5 buffer, 0.015% Brij-35, 50 mM EDTA and 0.2% of coating reagent 3 (Cliper Lifesciences)). After 30 minutes of incubation at room temperature, the plate was read in a Caliper. Percent of control was calculated as the percentage of compound-treated vs 2% DMSO vehicle-treated. The dose-response curves were generated and the IC50 values were calculated by nonlinear sigmoid curve fitting using XLFit.

human RET kinase = biological target: T3, human RET kinase (Homo sapiens, UniProt P07949); assay: RET Kinase Assay (mobility shift assay, ATP at Km); type: biochemical; details: 23 μM ATP (Km), read-out: RET Enzymatic Activity
T3 construct: purchased Carna 08-159
Protocol: Compounds were tested by Mobility shift assay with ATP concentration at Km. The assay used human RET kinase (Carna 08-159). Test compounds were prepared and diluted in DMSO in 3-fold serial dilutions to 50× of the final testing concentrations. The compounds were then further diluted to 5× by the kinase reaction buffer (50 mM HEPES pH 7.5, 0.0015% Brij-35). The enzymatic reaction for compound testing was performed in a white 384-well polypropylene plate (Corning 3573) with a total reaction volume of 25 μl containing 7 nM RET, 3 μM peptide substrate FAM-P2 (GL Biochem 112394), and 23 μM ATP (Sigma A7699-1G). The assay started with loading RET diluted in kinase reaction buffer to wells, followed by addition of equal volume of 5× compounds for 15-min incubation at the room temperature for pre-treatment. The enzymatic reaction was initiated by addition of mixture of the substrate and ATP prepared in kinase reaction buffer. After incubation at 28° C. for one hour, 25 μl of stopper buffer (a mixture of 100 mM HEPES pH 7.5 buffer, 0.015% Brij-35, 50 mM EDTA and 0.2% of coating reagent 3 (Cliper Lifesciences)). After 30 minutes of incubation at room temperature, the plate was read in a Caliper. Percent of control was calculated as the percentage of compound-treated vs 2% DMSO vehicle-treated. The dose-response curves were generated and the IC50 values were calculated by nonlinear sigmoid curve fitting using XLFit.

human KDR kinase = biological target: T4, human KDR kinase (Homo sapiens, UniProt P35968); assay: KDR Kinase Assay (mobility shift assay, ATP at Km); type: biochemical; details: 92 μM ATP (Km), read-out: KDR Enzymatic Activity
T4 construct: purchased Carna 08-191
Protocol: Compounds were tested by Mobility shift assay with ATP concentration at Km. The assay used human KDR kinase (Carna 08-191). Test compounds were prepared and diluted in DMSO in 3-fold serial dilutions to 50× of the final testing concentrations. The compounds were then further diluted to 5× by the kinase reaction buffer (50 mM HEPES pH 7.5, 0.0015% Brij-35). The enzymatic reaction for compound testing was performed in a white 384-well polypropylene plate (Corning 3573) with a total reaction volume of 25 μl containing 1.2 nM KDR, 3 μM peptide substrate FAM-P22 (GL Biochem 112393), and 92 μM ATP (Sigma A7699-1G). The assay started with loading RET diluted in kinase reaction buffer to wells, followed by addition of equal volume of 5× compounds for 15-min incubation at the room temperature for pre-treatment. The enzymatic reaction was initiated by addition of mixture of the substrate and ATP prepared in kinase reaction buffer. After incubation at 28° C. for one hour, 25 μl of stopper buffer (a mixture of 100 mM HEPES pH 7.5 buffer, 0.015% Brij-35, 50 mM EDTA and 0.2% of coating reagent 3 (Cliper Lifesciences)). After 30 minutes of incubation at room temperature, the plate was read in a Caliper. Percent of control was calculated as the percentage of compound-treated vs 2% DMSO vehicle-treated. The dose-response curves were generated and the IC50s were calculated by nonlinear sigmoid curve fitting using XLFit.

T3 sequence (P07949 29-1114): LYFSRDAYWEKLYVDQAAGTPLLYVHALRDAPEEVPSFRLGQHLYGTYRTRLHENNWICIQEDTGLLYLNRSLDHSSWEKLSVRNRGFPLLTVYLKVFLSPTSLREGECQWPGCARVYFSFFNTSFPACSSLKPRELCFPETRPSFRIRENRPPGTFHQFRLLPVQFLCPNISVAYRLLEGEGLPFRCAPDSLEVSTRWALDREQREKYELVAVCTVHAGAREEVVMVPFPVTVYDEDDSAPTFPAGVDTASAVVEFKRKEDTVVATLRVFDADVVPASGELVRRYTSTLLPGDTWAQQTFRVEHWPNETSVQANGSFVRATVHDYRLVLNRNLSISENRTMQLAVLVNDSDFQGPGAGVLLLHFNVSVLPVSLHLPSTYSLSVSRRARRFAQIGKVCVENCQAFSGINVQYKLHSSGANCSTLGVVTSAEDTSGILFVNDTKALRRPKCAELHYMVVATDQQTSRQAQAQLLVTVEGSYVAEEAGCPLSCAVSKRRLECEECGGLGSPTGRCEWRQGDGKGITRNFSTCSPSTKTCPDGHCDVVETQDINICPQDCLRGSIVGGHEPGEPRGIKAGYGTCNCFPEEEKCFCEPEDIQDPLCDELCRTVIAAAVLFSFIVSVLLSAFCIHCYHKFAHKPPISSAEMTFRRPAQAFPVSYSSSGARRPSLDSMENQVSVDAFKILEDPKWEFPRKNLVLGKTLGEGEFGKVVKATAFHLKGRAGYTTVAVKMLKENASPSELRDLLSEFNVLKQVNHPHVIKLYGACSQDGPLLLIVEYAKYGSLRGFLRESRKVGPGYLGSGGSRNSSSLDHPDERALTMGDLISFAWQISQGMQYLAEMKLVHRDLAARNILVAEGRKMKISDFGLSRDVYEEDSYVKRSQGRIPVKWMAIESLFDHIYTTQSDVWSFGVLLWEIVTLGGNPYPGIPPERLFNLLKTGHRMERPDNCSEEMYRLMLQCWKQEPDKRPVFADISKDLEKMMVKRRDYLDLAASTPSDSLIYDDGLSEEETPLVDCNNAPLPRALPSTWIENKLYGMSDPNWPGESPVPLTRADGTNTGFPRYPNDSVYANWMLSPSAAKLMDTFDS
T1 sequence (P07949 whole entry, change not shown, the tested form may be a part): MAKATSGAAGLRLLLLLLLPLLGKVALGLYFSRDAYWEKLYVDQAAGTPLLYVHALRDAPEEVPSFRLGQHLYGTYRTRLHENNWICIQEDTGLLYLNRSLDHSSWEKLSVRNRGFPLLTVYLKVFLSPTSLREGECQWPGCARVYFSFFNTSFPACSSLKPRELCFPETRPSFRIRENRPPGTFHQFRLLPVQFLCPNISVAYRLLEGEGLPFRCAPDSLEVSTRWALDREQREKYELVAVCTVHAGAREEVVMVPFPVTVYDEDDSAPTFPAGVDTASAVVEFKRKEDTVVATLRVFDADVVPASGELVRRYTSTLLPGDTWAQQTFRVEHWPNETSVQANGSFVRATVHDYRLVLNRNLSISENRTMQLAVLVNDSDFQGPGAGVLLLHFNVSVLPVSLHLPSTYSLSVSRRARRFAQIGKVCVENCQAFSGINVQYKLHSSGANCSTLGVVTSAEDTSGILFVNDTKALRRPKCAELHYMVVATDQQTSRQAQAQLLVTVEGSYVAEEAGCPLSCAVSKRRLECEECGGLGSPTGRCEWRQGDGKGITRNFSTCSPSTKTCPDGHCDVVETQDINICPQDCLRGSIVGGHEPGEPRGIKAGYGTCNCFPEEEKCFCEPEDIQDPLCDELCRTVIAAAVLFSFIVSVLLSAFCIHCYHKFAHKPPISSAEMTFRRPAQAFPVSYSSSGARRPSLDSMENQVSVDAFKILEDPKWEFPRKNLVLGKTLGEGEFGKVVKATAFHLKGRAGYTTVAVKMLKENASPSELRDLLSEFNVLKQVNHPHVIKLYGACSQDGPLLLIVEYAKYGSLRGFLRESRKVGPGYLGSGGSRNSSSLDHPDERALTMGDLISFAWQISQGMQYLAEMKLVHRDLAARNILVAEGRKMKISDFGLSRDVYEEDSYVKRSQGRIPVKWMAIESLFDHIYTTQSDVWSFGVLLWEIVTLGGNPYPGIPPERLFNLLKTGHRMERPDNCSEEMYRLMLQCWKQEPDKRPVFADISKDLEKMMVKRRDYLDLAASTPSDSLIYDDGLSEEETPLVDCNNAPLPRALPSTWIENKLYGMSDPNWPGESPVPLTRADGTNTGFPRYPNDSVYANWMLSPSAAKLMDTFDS
T2 sequence (Q96GD4 whole entry): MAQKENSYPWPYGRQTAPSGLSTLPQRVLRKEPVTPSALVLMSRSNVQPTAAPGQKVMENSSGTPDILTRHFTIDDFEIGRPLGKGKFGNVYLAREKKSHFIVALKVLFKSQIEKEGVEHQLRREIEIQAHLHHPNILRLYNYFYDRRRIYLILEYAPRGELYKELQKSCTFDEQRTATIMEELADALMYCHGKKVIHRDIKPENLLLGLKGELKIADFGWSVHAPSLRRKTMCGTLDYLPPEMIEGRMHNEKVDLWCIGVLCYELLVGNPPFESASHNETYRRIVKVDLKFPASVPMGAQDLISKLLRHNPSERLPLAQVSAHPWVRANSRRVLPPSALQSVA
T2 sequence (Q9NQS7 803-918 partner limits assumed): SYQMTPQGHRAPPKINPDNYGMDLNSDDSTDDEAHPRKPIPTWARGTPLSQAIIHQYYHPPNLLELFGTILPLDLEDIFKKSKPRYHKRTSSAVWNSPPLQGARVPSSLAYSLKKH
T4 sequence (P35968 20-1356): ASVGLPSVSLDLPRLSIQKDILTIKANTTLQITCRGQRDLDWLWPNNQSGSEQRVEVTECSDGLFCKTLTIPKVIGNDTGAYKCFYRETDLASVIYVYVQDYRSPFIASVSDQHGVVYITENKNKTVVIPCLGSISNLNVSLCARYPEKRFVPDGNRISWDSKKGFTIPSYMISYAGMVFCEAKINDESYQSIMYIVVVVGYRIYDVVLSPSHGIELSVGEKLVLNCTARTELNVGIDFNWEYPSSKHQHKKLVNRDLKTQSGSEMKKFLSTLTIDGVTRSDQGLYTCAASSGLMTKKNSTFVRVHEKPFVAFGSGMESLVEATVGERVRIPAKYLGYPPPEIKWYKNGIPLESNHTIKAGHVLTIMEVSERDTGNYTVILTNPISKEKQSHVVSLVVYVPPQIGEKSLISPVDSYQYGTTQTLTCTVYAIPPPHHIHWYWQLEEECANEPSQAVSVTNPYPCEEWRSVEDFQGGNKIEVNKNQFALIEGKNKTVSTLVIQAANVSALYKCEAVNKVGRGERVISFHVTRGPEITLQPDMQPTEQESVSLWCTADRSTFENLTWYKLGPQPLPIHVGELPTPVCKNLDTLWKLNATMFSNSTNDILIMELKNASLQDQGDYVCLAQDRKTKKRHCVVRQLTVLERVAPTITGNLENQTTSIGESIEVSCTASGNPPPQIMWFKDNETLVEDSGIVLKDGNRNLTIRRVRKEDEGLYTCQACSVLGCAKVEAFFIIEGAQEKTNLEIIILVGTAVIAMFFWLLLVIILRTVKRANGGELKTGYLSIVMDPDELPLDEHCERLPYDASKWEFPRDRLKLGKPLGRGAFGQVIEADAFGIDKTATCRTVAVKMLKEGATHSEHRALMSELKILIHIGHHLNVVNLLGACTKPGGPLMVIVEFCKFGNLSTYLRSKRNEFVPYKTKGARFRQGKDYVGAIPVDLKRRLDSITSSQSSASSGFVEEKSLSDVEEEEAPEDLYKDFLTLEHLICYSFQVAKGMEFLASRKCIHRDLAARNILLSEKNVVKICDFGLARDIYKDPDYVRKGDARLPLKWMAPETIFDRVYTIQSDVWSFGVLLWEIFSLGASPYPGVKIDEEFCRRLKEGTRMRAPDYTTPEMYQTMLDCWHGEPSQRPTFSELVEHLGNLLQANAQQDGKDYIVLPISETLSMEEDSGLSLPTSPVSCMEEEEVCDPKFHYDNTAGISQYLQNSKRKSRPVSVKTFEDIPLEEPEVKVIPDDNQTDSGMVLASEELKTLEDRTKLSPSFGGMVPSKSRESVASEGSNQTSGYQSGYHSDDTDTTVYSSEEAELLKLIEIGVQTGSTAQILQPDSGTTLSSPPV

Row | IC50 (human KDR kinase) | Structure (SMILES) | IC50 (BAF3 cells) | GI50 (BAF3-KIF5B-RET cells) | IC50 (human Aurora B kinase) | IC50 (human RET kinase)
1 |  | COc1ccc(CN2C3CC2CN(c2ccc(-c4cc(-c5cc(C(C)(C)O)n(C)n5)cn5ncc(C#N)c45)cn2)C3)cn1 [Example 4, 6-(5-(2-hydroxypropan-2-yl)-1-methyl-1H-pyrazol-3-yl)-4-(6-(6-((6-methoxypyridin-3-yl)methyl)-3,6-diazabicyclo[3.1.1]heptan-3-yl)pyridin-3-yl)pyrazolo[1,5-a]pyridine-3-carbonitrile] | 2220 nM | 0.7 nM | 128 nM | 0.67 nM
2 |  | CC(C)(O)c1ccc(-c2cc(-c3ccc(N4C[C@@H]5[C@@H](CNC(=O)c6ncccc6Cl)[C@@H]5C4)nc3)c3c(C#N)cnn3c2)nc1 [Example 5, 3-chloro-N-(((1R,5S,6s)-3-(5-(3-cyano-6-(5-(2-hydroxypropan-2-yl)pyridin-2-yl)pyrazolo[1,5-a]pyridin-4-yl)pyridin-2-yl)-3-azabicyclo[3.1.0]hexan-6-yl)methyl)picolinamide] | 516 nM | 3 nM | 19.5 nM | 0.8 nM
3 |  | COc1ccc(CN2C3CC2CN(c2ccc(-c4cc(-c5ccc(C(C)(C)O)nc5)cn5ncc(C#N)c45)cn2)C3)cn1 [Example 8, 6-(6-(2-hydroxypropan-2-yl)pyridin-3-yl)-4-(6-(6-((6-methoxypyridin-3-yl)methyl)-3,6-diazabicyclo[3.1.1]heptan-3-yl)pyridin-3-yl)pyrazolo[1,5-a]pyridine-3-carbonitrile] | 1050 nM | 1.4 nM | 45 nM | 0.38 nM
4 |  | COc1ccc(CN2C3CC2CN(c2ccc(-c4cc(-c5cnc(C(C)(C)O)nc5)cn5ncc(C#N)c45)cn2)C3)cn1 [Example 10, 6-(2-(2-hydroxypropan-2-yl)pyrimidin-5-yl)-4-(6-(6-((6-methoxypyridin-3-yl)methyl)-3,6-diazabicyclo[3.1.1]heptan-3-yl)pyridin-3-yl)pyrazolo[1,5-a]pyridine-3-carbonitrile] | > 10000 nM | 30.5 nM | 743 nM | 3.5 nM
5 |  | COc1ccc(CN2C3CC2CN(c2ccc(-c4cc(-c5ccc(C6(O)CC6)cn5)cn5ncc(C#N)c45)cn2)C3)cn1 [Example 11, 6-(5-(1-hydroxycyclopropyl)pyridin-2-yl)-4-(6-(6-((6-methoxypyridin-3-yl)methyl)-3,6-diazabicyclo[3.1.1]heptan-3-yl)pyridin-3-yl)pyrazolo[1,5-a]pyridine-3-carbonitrile] | 3060 nM | 0.9 nM | 66.4 nM | 0.6 nM
6 |  | COc1ccc(CN2C3CC2CN(c2ccc(-c4cc(-c5ncc(C(C)(C)O)cn5)cn5ncc(C#N)c45)cn2)C3)cn1 [Example 13, 6-(5-(2-hydroxypropan-2-yl)pyrimidin-2-yl)-4-(6-(6-((6-methoxypyridin-3-yl)methyl)-3,6-diazabicyclo[3.1.1]heptan-3-yl)pyridin-3-yl)pyrazolo[1,5-a]pyridine-3-carbonitrile] | 2670 nM | 2.2 nM | 183 nM | 0.4 nM
7 | 4.2 nM | CC(C)(O)c1ccc(-c2cc(-c3ccc(N4C5CC6CC4CC(NC(=O)c4ncccc4Cl)(C6)C5)nc3)c3c(C#N)cnn3c2)nc1 [Example 23, 3-chloro-N-((1R,3S,5s,7s)-2-(5-(3-cyano-6-(5-(2-hydroxypropan-2-yl)pyridin-2-yl)pyrazolo[1,5-a]pyridin-4-yl)pyridin-2-yl)-2-azaadamantan-5-yl)picolinamide] | 1140 nM | 0.5 nM |  | 1.7 nM
8 |  | CCC(=O)c1ccc(-c2cc(-c3ccc(N4CC5CC(C4)N5Cc4ccc(OC)nc4)nc3)c3c(C#N)cnn3c2)nc1 [Example 37, 4-(6-(6-((6-methoxypyridin-3-yl)methyl)-3,6-diazabicyclo[3.1.1]heptan-3-yl)pyridin-3-yl)-6-(5-propionylpyridin-2-yl)pyrazolo[1,5-a]pyridine-3-carbonitrile] | 4460 nM | 1.2 nM | 138 nM | 0.7 nM
